According to patent US20140135270A1, “MACROCYCLIC COMPOUNDS FOR INHIBITION OF INHIBITORS OF APOPTOSIS” (Ensemble Therapeutics Corp., priority 2012, published 2014):

What was measured:
[1] = biological target: T1, His-BIR2-3 (125-356, C202A/C213G, XIAP) (Homo sapiens, UniProt P98170, C202A/C213G); assay: XIAP-BIR2-3 Dimeric SMAC Peptide Homogeneous Time Resolved Fluorescence (HTRF) Assay; assay type: binding; settings: fluorescein labeled dimeric SMAC peptide
T1 construct: additions of His-BIR2-3 (125-356, C202A/C213G, XIAP), fluorescein labeled dimeric SMAC peptide

His-BIR3 (241-356, XIAP) = biological target: T2, His-BIR3 (241-356, XIAP) (Homo sapiens, UniProt P98170); assay: XIAP-BIR3/SMAC Homogeneous Time Resolved Fluorescence (HTRF) Assay; assay type: binding; settings: fluorescein labeled SMAC peptide
T2 construct: additions of His-BIR3 (241-356, XIAP), fluorescein labeled SMAC peptide
T2 sequence (P98170 241-356): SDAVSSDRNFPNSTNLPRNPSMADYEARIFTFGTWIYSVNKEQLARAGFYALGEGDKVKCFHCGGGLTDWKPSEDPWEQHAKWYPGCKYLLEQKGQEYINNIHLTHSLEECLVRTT

T1 sequence (P98170 125-356 C202A/C213G): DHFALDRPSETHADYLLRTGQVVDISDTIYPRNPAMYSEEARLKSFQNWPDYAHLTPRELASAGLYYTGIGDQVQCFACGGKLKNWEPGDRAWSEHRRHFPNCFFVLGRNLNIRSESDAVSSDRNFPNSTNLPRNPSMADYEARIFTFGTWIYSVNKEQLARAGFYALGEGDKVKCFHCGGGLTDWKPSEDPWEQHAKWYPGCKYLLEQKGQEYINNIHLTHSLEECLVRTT

Structure (SMILES)	IC50 [1] [nM]	IC50 (His-BIR3 (241-356, XIAP)) [nM]
CN[C@@H](C)C(=O)N[C@@H](C)C(=O)N1C[C@@H]2C[C@H]1C(=O)N[C@@H](Cc1ccc3ccccc3c1)C(=O)N[C@H](C(=O)O)CCC(=O)N[C@H]1C[C@@H](C(=O)N[C@@H](Cc3ccc4ccccc4c3)C(=O)N[C@H](C(=O)O)Cc3ccc(cc3)OC/C=C/CO2)N(C(=O)[C@@H](NC(=O)[C@H](C)NC)C(C)(C)C)C1 [Example 55]	108	252
CN[C@@H](C)C(=O)N[C@H](C(=O)N1C[C@@H]2C[C@H]1C(=O)N[C@@H](Cc1ccc3ccccc3c1)C(=O)N[C@H](C(=O)O)Cc1ccc(cc1)C(=O)N[C@H]1C[C@@H](C(=O)N[C@@H](Cc3ccc4ccccc4c3)C(=O)N[C@H](C(=O)O)Cc3ccc(cc3)OC/C=C/CO2)N(C(=O)[C@@H](NC(=O)[C@H](C)NC)C(C)(C)C)C1)C1CCOCC1 [Example 66]	1.3	5.2
CN[C@@H](C)C(=O)N[C@H](C(=O)N1C[C@H]2CCCCOc3ccc(cc3)C[C@@H](c3nnn[nH]3)NC(=O)[C@H](Cc3ccc4ccccc4c3)NC(=O)[C@@H]3C[C@@H](CN3C(=O)[C@@H](NC(=O)[C@H](C)NC)C(C)(C)C)n3cc(nn3)COc3ccc(cc3)C[C@@H](C(=O)O)NC(=O)[C@H](Cc3ccc4ccccc4c3)NC(=O)[C@@H]1C2)C(C)(C)C [Example 90]	0.5	1.7
CN[C@@H](C)C(=O)N[C@H](C(=O)N1C[C@@H]2C[C@H]1C(=O)N[C@@H](Cc1ccc3ccccc3c1)C(=O)N[C@H](C(=O)O)Cc1ccc(cc1)CCCCO[C@H]1C[C@@H](C(=O)N[C@@H](Cc3ccc4ccccc4c3)C(=O)N[C@H](C(=O)NS(=O)(=O)C3CC3)Cc3ccc(cc3)OCc3cn2nn3)N(C(=O)[C@@H](NC(=O)[C@H](C)NC)C(C)(C)C)C1)C(C)(C)C [Example 127]	7.1	7.5
CN[C@@H](C)C(=O)N[C@H](C(=O)N1CC[C@H]2OC/C=C/COc3ccc(cc3)C[C@@H](C(=O)O)NC(=O)[C@H](Cc3ccc4ccccc4c3)NC(=O)[C@@H]3[C@@H](CCN3C(=O)[C@@H](NC(=O)[C@H](C)NC)C(C)(C)C)OCc3cn(nn3)[C@H](C(=O)O)CCNC(=O)[C@H](Cc3ccc4ccccc4c3)NC(=O)[C@H]21)C(C)(C)C [Example 14]	3.7	17
CN[C@@H](C)C(=O)N[C@H](C(=O)N1C[C@@H]2C[C@H]1C(=O)NC(Cc1ccc3ccccc3c1)C(=O)N[C@H](C(=O)NS(=O)(=O)CCCO)Cc1ccc(cc1)OC/C=C/C[C@H]1C[C@@H](C(=O)N[C@@H](Cc3ccc4ccccc4c3)C(=O)N[C@H](C(=O)O)Cc3ccc(cc3)OCc3cn2nn3)N(C(=O)[C@@H](NC(=O)[C@H](C)NC)C(C)(C)C)C1)C(C)(C)C (some centres unmarked) [Example 94]	0.6	2.1
CN[C@@H](C)C(=O)N[C@H](C(=O)N1C[C@@H]2C[C@H]1C(=O)N[C@@H](Cc1ccc3ccccc3c1)C(=O)N[C@H](C(=O)O)Cc1ccc(cc1)OCCCCO[C@H]1C[C@@H](C(=O)N[C@@H](Cc3ccc4ccccc4c3)C(=O)N[C@H](C(=O)NS(=O)(=O)C3CC3)Cc3ccc(cc3)OCc3cn2nn3)N(C(=O)[C@@H](NC(=O)[C@H](C)NC)C(C)(C)C)C1)C(C)(C)C [Example 120]	8	42
CNC(C)C(=O)NC(C(=O)N1CC2CC1C(=O)NC(Cc1ccc3ccccc3c1)C(=O)NC(C(=O)O)Cc1ccc(cc1)OCc1cn(nn1)C1CC(C(=O)NC(Cc3ccc4ccccc4c3)C(=O)NC(C(=O)O)Cc3ccc(cc3)OCC=CCO2)N(C(=O)C(NC(=O)C(C)NC)C(C)(C)C)C1)C(C)(C)C (centres unmarked) [Example 4]	0.7	4.1
CNC(C)C(=O)NC(C(=O)N1CC2CCCCOc3ccc(cc3)CC(C(=O)NS(=O)(=O)CCCNC(C)=O)NC(=O)C(Cc3ccc4ccccc4c3)NC(=O)C3CC(CN3C(=O)C(NC(=O)C(C)NC)C(C)(C)C)n3cc(nn3)COc3ccc(cc3)CC(C(=O)O)NC(=O)C(Cc3ccc4ccccc4c3)NC(=O)C1C2)C(C)(C)C (centres unmarked) [Example 27]	2.7	3.5
CN[C@@H](C)C(=O)N[C@@H](Cc1ccccc1)C(=O)N1C[C@@H]2C[C@H]1C(=O)N[C@@H](Cc1ccc3ccccc3c1)C(=O)N[C@H](C(=O)O)Cc1ccc(cc1)C(=O)N[C@H]1C[C@@H](C(=O)N[C@@H](Cc3ccc4ccccc4c3)C(=O)N[C@H](C(=O)O)Cc3ccc(cc3)OC/C=C/CO2)N(C(=O)[C@@H](NC(=O)[C@H](C)NC)C(C)(C)C)C1 [Example 70]	2	9.3
CN[C@@H](C)C(=O)N[C@H](C(=O)N1C[C@H]2C/C=C/COc3ccc(cc3)C[C@@H](C(=O)NS(=O)(=O)C3CCCCC3)NC(=O)[C@H](Cc3ccc4ccccc4c3)NC(=O)[C@@H]3C[C@@H](CN3C(=O)[C@@H](NC(=O)[C@H](C)NC)C(C)(C)C)n3cc(nn3)COc3ccc(cc3)C[C@@H](C(=O)O)NC(=O)[C@H](Cc3ccc4ccccc4c3)NC(=O)[C@@H]1C2)C(C)(C)C [Example 24]	0.2	0.7
CC[C@H](NC(=O)[C@H](C)NC)C(=O)N1C[C@@H]2C[C@H]1C(=O)N[C@@H](Cc1c[nH]c3ccccc13)C(=O)N[C@H](C(=O)O)Cc1ccc(cc1)C(=O)N[C@H]1C[C@@H](C(=O)N[C@@H](Cc3ccc4ccccc4c3)C(=O)N[C@H](C(=O)O)Cc3ccc(cc3)OC/C=C/CO2)N(C(=O)[C@@H](NC(=O)[C@H](C)NC)C(C)(C)C)C1 [Example 47]	6.3	41.8
CN[C@@H](C)C(=O)N[C@H](C(=O)N1C[C@@H]2C[C@H]1C(=O)N[C@@H](Cc1ccc3ccccc3c1)C(=O)NC(C(=O)O)Cc1ccc(cc1)OC/C=C/CO[C@H]1C[C@@H](C(=O)N[C@@H](Cc3ccc4ccccc4c3)C(=O)N[C@H](C(=O)O)Cc3ccc(cc3)O2)N(C(=O)[C@@H](NC(=O)[C@H](C)NC)C(C)(C)C)C1)C(C)(C)C (some centres unmarked) [Example 84]	1.3	2.9
CN[C@@H](C)C(=O)N[C@@H](CC(=O)O)C(=O)N1C[C@@H]2C[C@H]1C(=O)N[C@@H](Cc1ccc3ccccc3c1)C(=O)N[C@H](C(=O)O)CCC(=O)N[C@H]1C[C@@H](C(=O)N[C@@H](Cc3ccc4ccccc4c3)C(=O)N[C@H](C(=O)O)Cc3ccc(cc3)OC/C=C/CO2)N(C(=O)[C@@H](NC(=O)[C@H](C)NC)C(C)(C)C)C1 [Example 58]	138	757
CN[C@@H](C)C(=O)NC(C(=O)N1C[C@H]2C/C=C/COc3ccc(cc3)C[C@@H](c3n[nH]c(=O)o3)NC(=O)C(Cc3ccc4ccccc4c3)NC(=O)[C@@H]3C[C@@H](CN3C(=O)[C@@H](NC(=O)[C@H](C)NC)C(C)(C)C)n3cc(nn3)COc3ccc(cc3)C[C@@H](C(=O)O)NC(=O)[C@H](Cc3ccc4ccccc4c3)NC(=O)[C@@H]1C2)C(C)(C)C (some centres unmarked) [Example 91]	0.4	2
CC[C@H](NC(=O)[C@H](C)NC)C(=O)N1C[C@@H]2C[C@H]1C(=O)N[C@@H](Cc1ccc3ccccc3c1)C(=O)N[C@H](C(=O)NS(=O)(=O)C1CC1)Cc1ccc(cc1)OCc1cn(nn1)[C@H]1C[C@@H](C(=O)N[C@@H](Cc3ccc4ccccc4c3)C(=O)N[C@H](C(=O)O)Cc3ccc(cc3)OC/C=C/CO2)N(C(=O)[C@@H](NC(=O)[C@H](C)NC)C(C)(C)C)C1 [Example 107]	1.7	26.1
CN[C@@H](C)C(=O)NC(C(=O)N1C[C@@H]2C[C@H]1C(=O)N[C@@H](Cc1ccc3ccccc3c1)C(=O)N[C@H](C(=O)O)Cc1ccc(cc1)OC/C=C/C(=O)N1CCN(C(=O)[C@@H](NC(=O)[C@H](C)NC)C(C)(C)C)[C@@H](C1)C(=O)N[C@@H](Cc1ccc3ccccc3c1)C(=O)N[C@H](C(=O)O)CCC(=O)N2)C(C)(C)C (some centres unmarked) [Example 79]	5.6	44.3
CN[C@@H](C)C(=O)N[C@H](C(=O)N1C[C@@H]2C[C@H]1C(=O)N[C@@H](Cc1ccc3ccccc3c1)C(=O)N[C@H](C(=O)O)Cc1ccc(cc1)OC/C=C/CO[C@H]1C[C@@H](C(=O)N[C@@H](Cc3ccc(-c4ccccc4)cc3)C(=O)N[C@H](C(=O)O)Cc3ccc(cc3)C(=O)N2)N(C(=O)[C@@H](NC(=O)[C@H](C)NC)C(C)(C)C)C1)C(C)(C)C [Example 48]	2.6	17.6
CNC(C)C(=O)NC(C(=O)N1CC2CC1C(=O)NC(Cc1ccc3ccccc3c1)C(=O)NC(C(=O)O)Cc1ccc(cc1)OCCCCC1CC(C(=O)NC(Cc3ccc4ccccc4c3)C(=O)NC(C(=O)NS(=O)(=O)C(C)C)Cc3ccc(cc3)OCc3cn2nn3)N(C(=O)C(NC(=O)C(C)NC)C(C)(C)C)C1)C(C)(C)C (centres unmarked) [Example 10]	3.1	6.6
CN[C@@H](C)C(=O)N[C@H](C(=O)N1CC[C@H]2OC/C=C/CC[C@@H](C(=O)O)NC(=O)[C@H](Cc3ccc4ccccc4c3)NC(=O)[C@@H]3[C@@H](CCN3C(=O)[C@@H](NC(=O)[C@H](C)NC)C(C)(C)C)OCc3cn(nn3)[C@H](C(=O)O)CCNC(=O)[C@H](Cc3ccc4ccccc4c3)NC(=O)[C@H]21)C(C)(C)C [Example 15]	4.1	38.9
CN[C@@H](C)C(=O)N[C@H](C(=O)N1C[C@@H]2C[C@H]1C(=O)N[C@@H](Cc1ccc3ccccc3c1)C(=O)N[C@H](C(=O)O)Cc1ccc(cc1)OC/C=C/CO[C@H]1C[C@@H](C(=O)N[C@@H](c3ccccc3)C(=O)N[C@H](C(=O)O)Cc3ccc(cc3)C(=O)N2)N(C(=O)[C@@H](NC(=O)[C@H](C)NC)C(C)(C)C)C1)C(C)(C)C [Example 53]	2.5	47.4
CN[C@@H](C)C(=O)N[C@H](C(=O)N1C[C@@H]2C[C@H]1C(=O)N[C@@H](Cc1ccc3ccccc3c1)C(=O)N[C@H](C(=O)O)Cc1ccc(cc1)OC/C=C/CO[C@H]1C[C@@H](C(=O)N[C@@H](Cc3ccc(-c4ccccc4)cc3)C(=O)N[C@H](C(=O)NS(=O)(=O)C3CC3)Cc3ccc(cc3)OCc3cn2nn3)N(C(=O)[C@@H](NC(=O)[C@H](C)NC)C(C)(C)C)C1)C(C)(C)C [Example 106]	1.7	17.9
